According to the supplement of paper PMC10307832:

What was measured:
Assay in all cases: relative viability (nuclei count vs DMSO), 5 days (fraction); higher = more cells survive
[1] = compound: COc1cc([C@@H]2c3cc4c(cc3[C@@H](O[C@@H]3O[C@@H]5CO[C@@H](C)O[C@H]5[C@H](O)[C@H]3O)[C@H]3COC(=O)[C@H]23)OCO4)cc(OC)c1O [Etoposide] + CC(=O)c1c(C)c2cnc(Nc3ccc(N4CCNCC4)cn3)nc2n(C2CCCC2)c1=O [Palbociclib] (partner 0.5 µM)
Procedure, shortened: (§1)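 Lung cancer cell lines were seeded in 1536-well plates and dosed by pin tool the next day, with either a single drug or a fixed anchor-drug dose combined with five library-drug doses (not always all listed) spaced in √10 steps. Five days later, one step fixed the cells and stained their nuclei (final 0.05% Triton X-100, 1% formaldehyde, 1 ug/ml Hoechst), and nuclei were counted on 4× images. Relative viability is the nuclei count in treated wells divided by the count in vehicle wells, and each value is the median of duplicate plates.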

[2] = compound: CC1=C(N=C(N=C1N)[C@H](CC(=O)N)NC[C@@H](C(=O)N)N)C(=O)N[C@@H]([C@H](C2=CN=CN2)OC3C(C(C(C(O3)CO)O)O)OC4C(C(C(C(O4)CO)O)OC(=O)N)O)C(=O)N[C@H](C)[C@H]([C@H](C)C(=O)N[C@@H]([C@@H](C)O)C(=O)NCCC5=NC(=CS5)C6=NC(=CS6)C(=O)NCCC[S+](C)C)O [Bleomycin] + C[C@]1(O)C[C@@H](c2nc(-c3ccc4ccc(-c5ccccc5)nc4c3)c3c(N)nccn32)C1 [Linsitinib] (partner 1 µM); settings: main component drawn
Procedure, shortened: as §1

[3] = compound: COc1cc([C@@H]2c3cc4c(cc3[C@@H](O[C@@H]3O[C@@H]5CO[C@@H](C)O[C@H]5[C@H](O)[C@H]3O)[C@H]3COC(=O)[C@H]23)OCO4)cc(OC)c1O [Etoposide] + Cc1nc(Nc2ncc(C(=O)Nc3c(C)cccc3Cl)s2)cc(N2CCN(CCO)CC2)n1 [Dasatinib] (partner 0.075 µM)
Procedure, shortened: as §1

[4] = compound: CC1=C(N=C(N=C1N)[C@H](CC(=O)N)NC[C@@H](C(=O)N)N)C(=O)N[C@@H]([C@H](C2=CN=CN2)OC3C(C(C(C(O3)CO)O)O)OC4C(C(C(C(O4)CO)O)OC(=O)N)O)C(=O)N[C@H](C)[C@H]([C@H](C)C(=O)N[C@@H]([C@@H](C)O)C(=O)NCCC5=NC(=CS5)C6=NC(=CS6)C(=O)NCCC[S+](C)C)O [Bleomycin] + CC(C)C[C@H](NC(=O)[C@H](Cc1ccccc1)NC(=O)c1cnccn1)B(O)O [Bortezomib] (partner 0.002 µM); settings: main component drawn
Procedure, shortened: as §1

Row | Cell Line | relative viability ([1]; first compound 0.01 µM) | relative viability ([1]; first compound 0.03162 µM) | relative viability ([1]; first compound 0.1 µM) | relative viability ([1]; first compound 0.3162 µM) | relative viability ([1]; first compound 1 µM) | relative viability ([2]; first compound 0.01 µM) | relative viability ([2]; first compound 0.03162 µM) | relative viability ([2]; first compound 0.1 µM) | relative viability ([2]; first compound 0.3162 µM) | relative viability ([2]; first compound 1 µM) | relative viability ([3]; first compound 0.01 µM) | relative viability ([3]; first compound 0.03162 µM) | relative viability ([3]; first compound 0.1 µM) | relative viability ([3]; first compound 0.3162 µM) | relative viability ([3]; first compound 1 µM) | relative viability ([4]; first compound 0.01 µM) | relative viability ([4]; first compound 0.03162 µM) | relative viability ([4]; first compound 0.1 µM) | relative viability ([4]; first compound 0.3162 µM) | relative viability ([4]; first compound 1 µM)
1 | NCI-H2085 | 0.461 | 0.477 | 0.513 | 0.409 | 0.323 | 0.678 | 0.823 | 0.632 | 0.346 | 0.363 | 0.219 | 0.241 | 0.226 | 0.23 | 0.197 | 0.768 | 0.875 | 0.707 | 0.377 | 0.366
2 | NCI-H2087 | 0.211 | 0.19 | 0.214 | 0.215 | 0.193 | 0.717 | 0.977 | 0.895 | 0.374 | 0.255 | 0.672 | 1.06 | 0.653 | 0.553 | 0.166 | 0.6 | 0.785 | 0.645 | 0.133 | 0.176
3 | NCI-H2126 | 0.32 | 0.39 | 0.316 | 0.368 | 0.34 | 0.641 | 0.756 | 0.687 | 0.645 | 0.546 | 0.668 | 0.568 | 0.434 | 0.485 | 0.244 | 1.06 | 1.08 | 1.08 | 0.7 | 0.947
4 | NCI-H2228 | 0.705 | 0.765 | 0.435 | 0.32 | 0.145 | 0.675 | 0.647 | 0.714 | 0.559 | 0.4 | 0.61 | 0.473 | 0.306 | 0.418 | 0.131 | 1.14 | 1.02 | 0.721 | 0.558 | 0.293
5 | NCI-H2347 | 0.314 | 0.397 | 0.375 | 0.381 | 0.346 | 0.848 | 0.846 | 0.831 | 0.484 | 0.464 | 0.365 | 0.294 | 0.293 | 0.255 | 0.249 | 0.915 | 1.05 | 0.889 | 0.7 | 0.476
6 | NCI-H2405 | 0.536 | 0.549 | 0.355 | 0.477 | 0.328 | 0.745 | 0.834 | 0.69 | 0.373 | 0.341 | 0.219 | 0.23 | 0.239 | 0.197 | 0.199 | 0.875 | 0.932 | 0.91 | 0.525 | 0.371
7 | NCI-H3122 | 0.218 | 0.219 | 0.164 | 0.182 | 0.165 | 1.05 | 1.03 | 1.01 | 0.744 | 0.457 | 0.749 | 0.775 | 0.112 | 0.817 | 0.223 | 0.999 | 0.976 | 0.957 | 0.698 | 0.428
8 | PC-3 [JPC-3] | 0.481 | 0.493 | 0.545 | 0.56 | 0.526 | 0.865 | 0.944 | 0.847 | 0.723 | 0.53 | 0.915 | 0.915 | 0.871 | 0.961 | 0.927 | 0.748 | 0.926 | 0.791 | 0.446 | 0.448
9 | PC-14 | 0.447 | 0.594 | 0.652 | 0.289 | 0.125 | 0.578 | 0.51 | 0.309 | 0.118 | 0.119 | 0.266 | 0.227 | 0.276 | 0.217 | 0.151 | 0.541 | 0.253 | 0.155 | 0.0725 | 0.0825
10 | RERF-LC-KJ | 1.04 | 1.19 | 0.918 | 0.912 | 0.606 | 0.617 | 0.502 | 0.502 | 0.233 | 0.22 | 0.602 | 0.899 | 0.707 | 0.73 | 0.494 | 0.887 | 0.727 | 0.625 | 0.343 | 0.334
11 | SK-LU-1 | 0.381 | 0.397 | 0.319 | 0.247 | 0.22 | 0.821 | 0.921 | 0.929 | 0.471 | 0.39 | 0.172 | 0.177 | 0.172 | 0.14 | 0.122 | 0.939 | 1.04 | 0.915 | 0.293 | 0.274
12 | SW 1573 | 0.363 | 0.349 | 0.288 | 0.16 | 0.109 | 0.705 | 0.567 | 0.417 | 0.311 | 0.176 | 0.43 | 0.525 | 0.212 | 0.155 | 0.0993 | 0.7 | 0.812 | 0.719 | 0.305 | 0.26
